pIC50: −log10 of the molar value. Active and inactive are the calls of the source. No cut-off for these calls is given here.
How the values were obtained:
[1] = Oral bioavailability in Sprague-Dawley rat at 3 mg/kg measured upto 24 hrs by LC/MS-MS analysis; assay type: ADME, organism-based; settings: in vivo
[2] = Drug distribution in SCID mouse plasma at 0.3 mg/kg, po measured at 1 hr by LC-MS/MS analysis; assay type: ADME, organism-based
[3] = Plasma protein binding in mouse by LC-MS analysis; assay type: ADME, cell-free; settings: read-out: PPB (converted)
[4] = Drug distribution in SCID mouse tumor at 1 mg/kg, po measured at 6 hrs by LC-MS/MS analysis; assay type: ADME, organism-based, Neoplasm; settings: read-out: Ct
[5] = Drug distribution in Sprague-Dawley rat kidney at 10 mg/kg, po measured at 6 hrs by LC-MS/MS analysis; assay type: ADME, organism-based; settings: read-out: Ct
[6] = Drug distribution in Sprague-Dawley rat plasma at 10 mg/kg, po measured at 1 hr by LC-MS/MS analysis; assay type: ADME, organism-based
[7] = biological target: T1, Protein cereblon/histone acetyltransferase (Rattus norvegicus, UniProt Q56AP7+Q91XT0); assay: PROTAC activity at p300/CRBN in rat RG2 cells assessed as induction of p300 degradation; assay type: cell-based
T1 sequence (Q56AP7 whole entry): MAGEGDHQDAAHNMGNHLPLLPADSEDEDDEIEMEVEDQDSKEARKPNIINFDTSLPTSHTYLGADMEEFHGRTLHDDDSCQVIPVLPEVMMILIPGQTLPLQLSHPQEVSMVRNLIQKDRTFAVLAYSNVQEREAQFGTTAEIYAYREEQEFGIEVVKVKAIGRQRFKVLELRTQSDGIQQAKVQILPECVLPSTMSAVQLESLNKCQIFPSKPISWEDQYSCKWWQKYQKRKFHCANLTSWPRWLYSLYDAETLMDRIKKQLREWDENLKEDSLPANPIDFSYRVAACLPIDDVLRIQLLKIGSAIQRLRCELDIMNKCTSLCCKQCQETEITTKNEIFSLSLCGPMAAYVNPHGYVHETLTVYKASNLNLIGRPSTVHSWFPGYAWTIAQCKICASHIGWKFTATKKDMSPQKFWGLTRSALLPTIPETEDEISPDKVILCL
T1 sequence (Q91XT0 whole entry): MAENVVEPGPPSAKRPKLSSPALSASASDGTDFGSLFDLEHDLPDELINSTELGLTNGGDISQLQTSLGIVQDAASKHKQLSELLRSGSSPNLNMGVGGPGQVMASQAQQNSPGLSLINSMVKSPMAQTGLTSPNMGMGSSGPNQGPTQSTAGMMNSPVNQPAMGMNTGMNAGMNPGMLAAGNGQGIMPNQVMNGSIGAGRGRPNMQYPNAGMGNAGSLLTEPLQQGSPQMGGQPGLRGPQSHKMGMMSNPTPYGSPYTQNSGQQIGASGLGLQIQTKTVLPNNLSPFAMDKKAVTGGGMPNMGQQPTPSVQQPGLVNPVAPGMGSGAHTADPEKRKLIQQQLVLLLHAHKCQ

[8] = Drug distribution in SCID mouse plasma at 1 mg/kg, po measured at 6 hrs by LC-MS/MS analysis; assay type: ADME, organism-based
[9] = Drug concentration in SCID mouse plasma at 1 mg/kg, po measured at 24 hrs by LC-MS/MS analysis; assay type: ADME, organism-based
[10] = Drug concentration in SCID mouse tumor at 1 mg/kg, po measured at 24 hrs by LC-MS/MS analysis; assay type: ADME, organism-based, Neoplasm; settings: read-out: Ct
[11] = Toxicity in immune-competent Sprague-Dawley rat assessed as change in white blood cells count at 1 to 10 mg/kg, po administered twice a week for 5 weeks; assay type: organism-based; settings: in vivo, 840 h, dose 1-10 mg/kg
[12] = Drug distribution in SCID mouse plasma at 3 mg/kg, po measured at 6 hrs by LC-MS/MS analysis; assay type: ADME, organism-based
[13] = Drug distribution in SCID mouse plasma at 1 mg/kg, po measured at 24 hrs by LC-MS/MS analysis; assay type: ADME, organism-based
CWR22R [14] = assay: Antitumor activity against human 22Rv1 cells xenografted in SCID mouse assessed as tumor growth inhibition at 1 mg/kg, po administered 5 times a week for 3 weeks; assay type: functional; settings: 22Rv1, 504 h, read-out: TGI
Cytochrome P450 3A4 [15] = biological target: T2, Cytochrome P450 3A4 (Homo sapiens, UniProt P08684); assay: Inhibition of CYP3A4 (unknown origin) using midazolam as substrate preincubated with compound for 5 mins followed by NADPH addition and measured after 20 mins by LC-MS/MS analysis; assay type: ADME
[16] = Drug distribution in Sprague-Dawley rat liver at 10 mg/kg, po measured at 1 hr by LC-MS/MS analysis; assay type: ADME, organism-based; settings: read-out: Ct
CWR22R [17] = assay: Antiproliferative activity against human 22Rv1 cells assessed as cell growth inhibition incubated for 4 days by celtiter-glo luminescent assay; settings: 22Rv1, 96 h
[18] = Toxicity in immune-competent Sprague-Dawley rat assessed as change in neutrophil at 1 to 10 mg/kg, po administered twice a week for 5 weeks; assay type: organism-based; settings: in vivo, 840 h, dose 1-10 mg/kg
[19] = Drug distribution in SCID mouse plasma at 1 mg/kg, po measured at 1 hr by LC-MS/MS analysis; assay type: ADME, organism-based
[20] = Drug distribution in Sprague-Dawley rat plasma at 3 mg/kg, po measured at 1 hr by LC-MS/MS analysis; assay type: ADME, organism-based
[21] = Drug distribution in SCID mouse spleen at 1 mg/kg, po measured at 24 hrs by LC-MS/MS analysis; assay type: ADME, organism-based; settings: read-out: Ct
[22] = Drug distribution in SCID mouse plasma at 0.3 mg/kg, po measured at 6 hrs by LC-MS/MS analysis; assay type: ADME, organism-based
[23] = Toxicity in SCID mouse xenografted with human VCaP cells assessed as loss of body weight at 1 to 3 mg/kg, po administered daily 5 times a week for 4 weeks; assay type: organism-based; settings: in vivo, 672 h, dose 1-3 mg/kg
[24] = Drug distribution in Sprague-Dawley rat spleen at 10 mg/kg, po measured at 24 hrs by LC-MS/MS analysis; assay type: ADME, organism-based; settings: read-out: Ct
Cytochrome P450 3A4 [25] = biological target: T2, Cytochrome P450 3A4; assay: Inhibition of CYP3A4 (unknown origin) using testosterone as substrate preincubated with compound for 5 mins followed by NADPH addition and measured after 20 mins by LC-MS/MS analysis; assay type: ADME
[26] = Drug distribution in Sprague-Dawley rat plasma at 3 mg/kg, po measured at 6 hrs by LC-MS/MS analysis; assay type: ADME, organism-based
CWR22R [27] = assay: Antitumor activity against human 22Rv1 cells xenografted in SCID mouse assessed as reduction in BRD2 level in tumor at 1 to 3 mg/kg, po measured at 6 to 24 hrs by Western blotting analysis; assay type: functional, organism-based; settings: dose 1-3 mg/kg, time 6-24 hrs
[28] = Drug distribution in SCID mouse liver at 0.3 mg/kg, po measured at 1 hr by LC-MS/MS analysis; assay type: ADME, organism-based; settings: read-out: Ct
[29] = Drug distribution in Sprague-Dawley rat kidney at 3 mg/kg, po measured at 1 hr by LC-MS/MS analysis; assay type: ADME, organism-based; settings: read-out: Ct
CWR22R [30] = assay: Antitumor activity against human 22Rv1 cells xenografted in SCID mouse assessed as tumor growth inhibition at 0.3 mg/kg, po administered 5 times a week for 3 weeks; assay type: functional; settings: 22Rv1, 504 h, read-out: TGI
Cytochrome P450 2C9 = Cytochrome P450 2C9 (Homo sapiens, UniProt P11712); assay: Inhibition of CYP2C9 (unknown origin) preincubated with compound for 5 mins followed by NADPH addition and measured after 10 mins by LC-MS/MS analysis; assay type: ADME
Sequence of Cytochrome P450 2C9 (P11712 whole entry): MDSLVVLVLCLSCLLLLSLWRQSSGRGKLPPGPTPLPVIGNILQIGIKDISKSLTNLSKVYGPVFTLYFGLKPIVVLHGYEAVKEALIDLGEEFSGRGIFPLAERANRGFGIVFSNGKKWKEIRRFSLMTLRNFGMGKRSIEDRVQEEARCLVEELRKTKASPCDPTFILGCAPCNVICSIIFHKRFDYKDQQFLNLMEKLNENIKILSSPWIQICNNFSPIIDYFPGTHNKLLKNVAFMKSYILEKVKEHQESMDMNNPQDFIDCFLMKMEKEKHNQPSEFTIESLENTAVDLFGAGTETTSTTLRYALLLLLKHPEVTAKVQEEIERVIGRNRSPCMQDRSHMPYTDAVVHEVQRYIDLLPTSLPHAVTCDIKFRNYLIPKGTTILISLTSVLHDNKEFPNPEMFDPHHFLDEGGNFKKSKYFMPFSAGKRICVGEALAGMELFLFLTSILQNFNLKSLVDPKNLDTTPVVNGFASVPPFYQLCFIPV

T2 sequence (P08684 whole entry): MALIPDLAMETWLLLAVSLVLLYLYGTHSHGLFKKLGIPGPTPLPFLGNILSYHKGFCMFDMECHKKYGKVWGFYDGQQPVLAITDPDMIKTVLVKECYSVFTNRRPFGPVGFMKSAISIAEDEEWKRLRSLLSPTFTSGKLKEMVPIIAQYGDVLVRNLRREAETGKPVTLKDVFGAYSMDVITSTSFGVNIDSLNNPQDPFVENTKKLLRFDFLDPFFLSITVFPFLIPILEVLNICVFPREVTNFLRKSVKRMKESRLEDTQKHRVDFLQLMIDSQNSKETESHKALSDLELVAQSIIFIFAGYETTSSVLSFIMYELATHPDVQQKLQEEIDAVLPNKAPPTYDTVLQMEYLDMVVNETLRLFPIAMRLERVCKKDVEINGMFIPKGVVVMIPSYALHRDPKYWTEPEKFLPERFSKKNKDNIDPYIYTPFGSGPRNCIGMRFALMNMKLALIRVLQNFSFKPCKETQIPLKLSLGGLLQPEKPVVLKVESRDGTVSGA

bioavailability [1]: 67%
concentration at 1 h [2]: 35.2 ng/mL
fraction unbound [3]: 0.016
concentration at 6 h [4]: 64.3 ng/g
concentration at 6 h [5]: 224 ng/g
concentration at 1 h [6]: 321 ng/mL
DC50 [7]: 0.3 nM
concentration at 6 h [8]: 43.2 ng/mL
concentration at 24 h [9]: 2.8 ng/mL
concentration at 24 h [10]: 6.3 ng/g
concentration at 6 h [12]: 763 ng/mL
concentration at 24 h [13]: 3.3 ng/mL
pIC50 (Cytochrome P450 3A4 [15]): < 5.00
concentration at 1 h [16]: 4100 ng/g
concentration at 1 h [19]: 212 ng/mL
concentration at 1 h [20]: 109 ng/mL
concentration at 24 h [21]: 2.8 ng/mL
concentration at 6 h [22]: 12.7 ng/mL
concentration at 24 h [24]: 12.6 ng/g
pIC50 (Cytochrome P450 3A4 [25]): < 5.00
concentration at 6 h [26]: 13.1 ng/mL
concentration at 1 h [28]: 323 ng/mL
concentration at 1 h [29]: 514 ng/g
pIC50 (Cytochrome P450 2C9): < 5.00
SMILES: CC(=O)N1CCc2c(c(N3CCCc4cc(-c5cnn(C)c5)c(C(F)F)cc43)nn2[C@H]2CC[C@H](CN3Cc4cc5c(cc4C3)C(=O)N(C3CCC(=O)NC3=O)C5=O)CC2)C1 (stereo partly specified)
Activity [11]: Non-Toxic
inhibition in vivo at 1 mg/kg (CWR22R [14]): 75%
pIC50 (CWR22R [17]): 8.43
Activity [18]: Non-Toxic
Activity [23]: > 8%
Activity (CWR22R [27]): Active
inhibition in vivo at 0.3 mg/kg (CWR22R [30]): 56%
